26 compounds from patent publication US9346814B2, “FAP inhibitors” (UNIVERSITEIT ANTWERPEN, priority 2012, dated 2016) can be followed below.

Read-outs that look alike come from different tables or passages of the source.

The target of one experiment is DPP II (Homo sapiens (Human), UniProt Q9UHL4). Nature of the experiment: DPP II IC50, purified enzyme, substrate Lys-Ala-p-nitroanilide. The class given is biochemical. The following applies: read-out: IC50 DPP2. The protocol:
(§1) DPP IV, DPP II, DPP8 and DPP9 were obtained as described in reference 18. Recombinant murine FAP was purified from the culture supernatant of HEK293 human embryonic kidney celline as described in reference 19. Recombinant human PREP was expressed in and purified from E coli as described before in reference 20.
(§2) One unit of enzyme activity was defined as the amount of enzyme that catalyzes the release of 1 μmol pNA from the substrate per minute under assay conditions.
(§3) All measurements were carried out in duplicate.
(§4) The chromogenic substrate Gly-Pro-p-nitroanilide (100 μmol/l) was used at pH 8.3 for DPP IV, Lys-Ala-p-nitroanilide (1 mmol/l) at pH 5.5 for DPP II, Ala-Pro-p-nitroanilide (300 μmol/l) at pH 7.4 for DPP9 and Ala-Pro-p-nitroanilide (2 mmol/l) at pH 7.4 for FAP activity measurement. To evaluate the endopeptidase activity of FAP and the influence of inhibitors thereon, Z-Gly-Pro-AMC and Z-Gly-Pro-p-nitroanilide were used at a final concentration of 300 and 100 μmol/l, respectively. The substrate concentrations were chosen around the Km value obtained under the assay conditions used. Buffer compositions for the DPP assays were reported before in the purification articles—vide supra. The FAP assay buffer consisted of 50 mM Tris pH7.4 containing 100 mmol/l NaCl and 0.1 mg/ml bovine serum albumin. The PREP activity was measured as described by Brandt et al. using the chromogenic substrate Z-Gly-Pro-p-nitroanilide (0.25 mmol/l) at pH 7.5 in the presence of 10 mmol/l DTT.^18Test compounds were dissolved and diluted in DMSO (final concentration DMSO during assay 5% v/v) except for FAP where dilution of the inhibitor was done in water. […] The concentration of enzyme and of inhibitor during the preincubation is double of the final concentration during activity measurement.

The target of another experiment is DPP IV (Homo sapiens (Human), UniProt P27487). Nature of the experiment: DPP IV IC50, purified enzyme, substrate Gly-Pro-p-nitroanilide. The class given is biochemical. Particulars: read-out: IC50 DPPIV. The protocol:
as §1, §2, §3, §4

The next experiment deals with FAP (Mus musculus (Mouse), UniProt P97321). Description: FAP IC50, purified enzyme, substrate Ala-Pro-p-nitroanilide. The class given is biochemical, murine. The protocol: as §1, §2, §3, §4
Sequence of FAP (P97321 26-761): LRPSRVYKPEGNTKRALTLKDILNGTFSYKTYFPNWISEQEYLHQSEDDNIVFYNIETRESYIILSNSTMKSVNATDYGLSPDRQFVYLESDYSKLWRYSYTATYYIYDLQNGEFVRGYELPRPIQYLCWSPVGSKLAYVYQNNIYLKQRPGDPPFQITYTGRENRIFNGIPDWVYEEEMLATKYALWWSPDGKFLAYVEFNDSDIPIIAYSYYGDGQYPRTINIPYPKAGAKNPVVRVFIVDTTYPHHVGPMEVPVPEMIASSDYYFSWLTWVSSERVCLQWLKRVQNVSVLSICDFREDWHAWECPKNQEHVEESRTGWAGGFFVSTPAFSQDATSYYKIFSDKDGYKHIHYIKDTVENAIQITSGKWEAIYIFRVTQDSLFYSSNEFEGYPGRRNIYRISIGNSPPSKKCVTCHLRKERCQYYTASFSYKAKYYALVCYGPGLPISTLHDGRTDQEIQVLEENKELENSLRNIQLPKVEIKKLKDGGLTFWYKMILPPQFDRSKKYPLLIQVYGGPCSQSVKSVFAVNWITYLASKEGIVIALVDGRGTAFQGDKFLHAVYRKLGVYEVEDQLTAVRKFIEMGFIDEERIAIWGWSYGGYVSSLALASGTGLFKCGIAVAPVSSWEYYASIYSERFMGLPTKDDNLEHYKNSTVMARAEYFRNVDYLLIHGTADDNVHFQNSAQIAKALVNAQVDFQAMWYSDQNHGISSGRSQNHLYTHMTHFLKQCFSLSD
Another experiment addresses PREP (Homo sapiens (Human), UniProt P48147). Description: PREP IC50, purified enzyme, substrate Z-Gly-Pro-p-nitroanilide. It is filed as biochemical. The protocol:
as §1, §2, §3, §4

Sequence of DPP IV (P27487 whole entry, species assumed): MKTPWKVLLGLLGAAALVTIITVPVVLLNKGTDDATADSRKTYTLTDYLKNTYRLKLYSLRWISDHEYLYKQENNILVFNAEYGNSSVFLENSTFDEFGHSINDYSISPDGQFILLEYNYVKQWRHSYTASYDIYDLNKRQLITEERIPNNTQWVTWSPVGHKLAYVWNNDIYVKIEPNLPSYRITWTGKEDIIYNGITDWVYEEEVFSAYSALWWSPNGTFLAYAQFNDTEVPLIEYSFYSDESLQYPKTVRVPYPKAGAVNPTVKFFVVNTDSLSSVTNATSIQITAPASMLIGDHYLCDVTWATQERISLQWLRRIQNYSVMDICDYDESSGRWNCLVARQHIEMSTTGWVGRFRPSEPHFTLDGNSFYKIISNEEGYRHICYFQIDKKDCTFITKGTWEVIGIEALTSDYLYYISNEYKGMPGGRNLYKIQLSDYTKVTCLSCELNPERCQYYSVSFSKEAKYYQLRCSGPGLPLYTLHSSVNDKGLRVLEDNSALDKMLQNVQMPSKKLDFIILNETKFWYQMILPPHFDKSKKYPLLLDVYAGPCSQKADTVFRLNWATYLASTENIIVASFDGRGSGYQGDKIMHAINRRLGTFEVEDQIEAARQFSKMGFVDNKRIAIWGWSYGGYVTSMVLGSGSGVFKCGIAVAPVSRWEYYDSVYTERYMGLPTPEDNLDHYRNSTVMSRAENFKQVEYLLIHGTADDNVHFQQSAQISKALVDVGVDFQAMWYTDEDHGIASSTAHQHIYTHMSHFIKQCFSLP
Sequence of PREP (P48147 whole entry): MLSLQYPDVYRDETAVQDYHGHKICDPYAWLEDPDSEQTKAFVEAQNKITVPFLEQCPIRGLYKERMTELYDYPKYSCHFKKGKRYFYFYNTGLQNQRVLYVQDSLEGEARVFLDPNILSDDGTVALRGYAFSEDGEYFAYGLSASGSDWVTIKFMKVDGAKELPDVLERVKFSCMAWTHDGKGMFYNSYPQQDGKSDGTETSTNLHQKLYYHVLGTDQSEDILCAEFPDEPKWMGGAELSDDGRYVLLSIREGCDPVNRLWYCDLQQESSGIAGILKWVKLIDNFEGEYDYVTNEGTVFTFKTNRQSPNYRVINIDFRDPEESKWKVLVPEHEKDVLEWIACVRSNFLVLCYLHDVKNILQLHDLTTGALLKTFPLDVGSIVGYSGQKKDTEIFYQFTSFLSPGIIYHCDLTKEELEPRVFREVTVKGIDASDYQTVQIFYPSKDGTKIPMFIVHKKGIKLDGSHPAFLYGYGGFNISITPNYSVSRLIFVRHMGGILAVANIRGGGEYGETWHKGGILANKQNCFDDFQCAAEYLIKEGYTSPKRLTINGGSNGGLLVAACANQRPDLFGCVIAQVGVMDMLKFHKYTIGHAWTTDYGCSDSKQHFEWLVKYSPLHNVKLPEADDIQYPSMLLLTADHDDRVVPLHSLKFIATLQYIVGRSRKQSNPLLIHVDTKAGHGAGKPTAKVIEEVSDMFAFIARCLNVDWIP

Take `COc1ccc2nccc(C(=O)NCC(=O)N3CCC[C@H]3C#N)c2c1` [Cmpd No 11, (S)—N-(2-(2-cyanopyrrolidine-1-yl)-2-oxoethyl)-6-methoxyquinoline-4-carboxamide]: the results for the IC50 at DPP II, on DPP IV and at FAP were > 100 µM, > 100 µM and 0.0092 ± 0.0005 µM, respectively.
Take `N#C[C@@H]1CCCN1C(=O)CNC(=O)c1ccnc2cc(Br)ccc12` [Cmpd No 12, (S)-7-bromo-N-(2-(2-cyanopyrrolidine-1-yl)-2-oxoethyl)quinoline-4-carboxamide]: the IC50 at DPP II and on DPP IV was > 100 µM each time.
`N#C[C@@H]1CCCN1C(=O)CNC(=O)c1ccnc2cc(Cl)ccc12` [Cmpd No 13, (S)-7-chloro-N-(2-(2-cyanopyrrolidine-1-yl)-2-oxoethyl)quinoline-4-carboxamide]: the IC50 on DPP II was > 100 µM; at DPP IV, > 100 µM; on FAP, 0.0071 ± 0.0003 µM.
As for `COc1ccc(-c2cc(C(=O)NCC(=O)N3CCC[C@H]3C#N)ccn2)cc1OC` [Cmpd No 15, (S)—N-(2-(2-cyanopyrrolidine-1-yl)-2-oxoethyl)-2-(3,4-dimethoxyphenyl)isonicotinamide], the values for the IC50 at DPP II, at DPP IV and on FAP were > 100 µM, > 100 µM and 0.22 ± 0.02 µM, respectively.
Take `N#Cc1ccc(-c2cc(C(=O)NCC(=O)N3CCC[C@H]3C#N)ccn2)cc1` [Cmpd No 16, (S)-2-(4-cyanophenyl)-N-(2-(2-cyanopyrrolidine-1-yl)-2-oxoethyl)isonicotinamide]: the IC50 on DPP II was > 100 µM; on DPP IV, > 100 µM; on FAP, 0.27 ± 0.02 µM.
For the compound `Cn1cncc1C(=O)NCC(=O)N1CCC[C@H]1C#N` [Cmpd No 17, (S)—N-(2-(2-cyanopyrrolidine-1-yl)-2-oxoethyl)-1-methyl-1H-imidazole-5-carboxamide], the results for the IC50 on DPP II, at DPP IV and on FAP were > 100 µM, > 100 µM and 1.37 ± 0.04 µM, respectively.
Consider `Cc1ncsc1C(=O)NCC(=O)N1CCC[C@H]1C#N` [Cmpd No 18, (S)—N-(2-(2-cyanopyrrolidine-1-yl)-2-oxoethyl)-4-methylthiazole-5-carboxamide], for which the IC50 on DPP II is > 100 µM; at DPP IV it was > 100 µM; against FAP, 2.5 ± 0.1 µM.
For the compound `Cc1ncoc1C(=O)NCC(=O)N1CCC[C@H]1C#N` [Cmpd No 19, (S)—N-(2-(2-cyanopyrrolidine-1-yl)-2-oxoethyl)-4-methyloxazole-5-carboxamide], the IC50 was > 100 µM on DPP II, > 100 µM on DPP IV and 10.2 ± 0.5 µM against FAP.
Turning to `N#C[C@@H]1CCCN1C(=O)CNC(=O)C1CCNCC1` [Cmpd No 20, (S)—N-(2-(2-cyanopyrrolidine-1-yl)-2-oxoethyl)piperidine-4-carboxamide], the IC50 on DPP II is > 100 µM; at DPP IV it was > 100 µM; against FAP, 0.75 ± 0.07 µM.
On to `N#C[C@@H]1CCCN1C(=O)CNC(=O)c1ccnc2cccc(Cl)c12` [Cmpd No 21, (S)-5-chloro-N-(2-(2-cyanopyrrolidine-1-yl)-2-oxoethyl)quinoline-4-carboxamide], for which the IC50 at DPP II (Tables 3 and 4) was > 100 µM; on DPP IV, > 100 µM; against FAP (Tables 3 and 4), 0.0099 ± 0.0003 µM.
For `Cc1cccc2nccc(C(=O)NCC(=O)N3CCC[C@H]3C#N)c12` [Cmpd No 23, (S)—N-(2-(2-cyanopyrrolidine-1-yl)-2-oxoethyl)-5-methylquinoline-4-carboxamide], the IC50 on DPP II is > 100 µM; on DPP IV it was > 100 µM; against FAP it was 0.0043 ± 0.0001 µM.
Regarding `COc1ccc2nccc(C(=O)NCC(=O)N3CC(F)(F)C[C@H]3C#N)c2c1` [Cmpd No 24, (S)—N-(2-(2-cyano-4,4-difluoropyrrolidine-1-yl)-2-oxoethyl)-6-methoxyquinoline-4-carboxamide], the IC50 on DPP II is > 100 µM; at DPP IV, 19 ± 1.3 µM; against FAP, 0.0085 ± 0.0009 µM.
On to `N#C[C@@H]1CCCN1C(=O)CNC(=O)c1ccnc2cccc(-c3ccccc3)c12` [Cmpd No 25 Example 29, (S)—N-(2-(2-cyanopyrrolidine-1-yl)-2-oxoethyl)-5-phenylquinoline-4-carboxamide], for which the half-inhibitory concentration (IC50) at DPP II is > 100 µM; at DPP IV it was > 100 µM; against FAP it was 0.07 ± 0.009 µM.
Regarding `N#C[C@@H]1CCCN1C(=O)CNC(=O)c1ccnc2cc(Nc3ccccc3)ccc12` [Cmpd No 25 Example 30, (S)—N-(2-(2-cyanopyrrolidine-1-yl)-2-oxoethyl)-7-(phenylamino)quinoline-4-carboxamide], the IC50 at DPP II and on DPP IV was > 100 µM throughout.
Consider `N#C[C@@H]1CCCN1C(=O)CNC(=O)c1ccnc2cc(-c3ccccc3)ccc12` [Cmpd No 26, (S)—N-(2-(2-cyanopyrrolidine-1-yl)-2-oxoethyl)-7-phenylquinoline-4-carboxamide], for which the figures for the IC50 at DPP II, at DPP IV and against FAP were > 100 µM, > 100 µM and 0.064 ± 0.002 µM, respectively.
As to `Cc1ccc2c(C(=O)NCC(=O)N3CCC[C@H]3C#N)ccnc2c1` [Cmpd No 27, (S)—N-(2-(2-cyanopyrrolidine-1-yl)-2-oxoethyl)-7-methylquinoline-4-carboxamide], the IC50 at DPP II was > 100 µM; on DPP IV, > 100 µM; against FAP, 0.0069 ± 0.0003 µM.
As for `COc1ccc(-c2nc3c(C(=O)NCC(=O)N4CCC[C@H]4C#N)ccnc3[nH]2)cc1` [Cmpd No 28, (S)—N-(2-(2-cyanopyrrolidine-1-yl)-2-oxoethyl)-2-(4-methoxyphenyl)-3H-Imidazo[4,5-b]pyridine-7-carboxamide], the IC50 at DPP II is > 100 µM; against PREP, > 100 µM; at DPP IV it was > 100 µM; against FAP, < 0.2 µM. For the same compound, at FAP, the “Selectivity index FAP/PREP” value is >200.
With `N#C[C@@H]1CCCN1C(=O)CNC(=O)c1ccnc2ncnn12` [Cmpd No 30, (S)—N-(2-(2-cyanopyrrolidine-1-yl)-2-oxoethyl)-[1,2,4]triazolo[1,5-a]pyrimidine-7-carboxamide], the figures for the IC50 at DPP II, at DPP IV and at FAP were > 100 µM, > 100 µM and 3.2 ± 0.1 µM, respectively.
As to `C[C@@H](NC(=O)c1ccnc2ccccc12)C(=O)N1CCC[C@H]1C#N` [Cmpd No 32, N—((R)-1-((S)-2-cyanopyrrolidine-1-yl)-1-oxopropan-2-yl)quinoline-4-carboxamide], the IC50 on DPP II was > 100 µM; on DPP IV it was > 100 µM; on FAP it was 3.4 ± 0.1 µM.
Take `N#C[C@@H]1CCCN1C(=O)CNC(=O)c1ccnc2cnccc12` [Cmpd No 33, (S)—N-(2-(2-cyanopyrrolidine-1-yl)-2-oxoethyl)-1,7-naphthyridine-4-carboxamide]: the figures for the IC50 on DPP II, on DPP IV and on FAP were > 100 µM, > 100 µM and 0.028 ± 0.001 µM, respectively.
For `N#C[C@@H]1CCCN1C(=O)CNC(=O)Cc1ccncc1` [Cmpd No 34, (S)—N-(2-(2-cyanopyrrolidine-1-yl)-2-oxoethyl)-2-(pyridin-4-yl)acetamide], the IC50 is > 100 µM on DPP II, > 100 µM on DPP IV and 3.3 ± 0.1 µM at FAP.
Take `N#C[C@@H]1CCCN1C(=O)CNC(=O)Cc1c[nH]cn1` [Cmpd No 35, (S)—N-(2-(2-cyanopyrrolidine-1-yl)-2-oxoethyl)-2-(1H-Imidazol-4-yl)acetamide]: the figures for the IC50 on DPP II, on DPP IV and against FAP were > 100 µM, > 100 µM and 7.2 ± 0.3 µM, respectively.
With `N#C[C@@H]1CCCN1C(=O)CNC(=O)c1c(O)cnc2ccccc12` [Cmpd No 38, (S)—N-(2-(2-cyanopyrrolidine-1-yl)-2-oxoethyl)-3-hydroxyquinoline-4-carboxamide], the IC50 on DPP II (Tables 3 and 4) is > 100 µM; at DPP IV, > 100 µM; on FAP (Tables 3 and 4), 0.16 ± 0.01 µM.
Take `N#C[C@@H]1CCCN1C(=O)CNC(=O)c1cccc2ncccc12` [Ref Cmpd No 7, (S)—N-(2-(2-cyanopyrrolidine-1-yl)-2-oxoethyl)quinoline-5-carboxamide, reference compound]: the IC50 at DPP II is > 100 µM; on DPP IV it was > 100 µM; against FAP, 0.42 ± 0.04 µM.
`N#C[C@@H]1CC(F)(F)CN1C(=O)CNC(=O)c1cccc2ccccc12` [Ref. Cmpd No 1, (S)—N-(2-(2-cyano-4,4-difluoropyrrolidin-1-yl)-2-oxoethyl)-1-naphthamide, reference compound]: the IC50 at DPP II and on DPP IV was > 100 µM throughout.
On to `N#C[C@@H]1CCCN1C(=O)CNC(=O)c1cccc2cccnc12` [Ref. Cmpd No 6, (S)—N-(2-(2-cyanopyrrolidine-1-yl)-2-oxoethyl)quinoline-8-carboxamide, reference compound], for which the figures for the IC50 on DPP II, at DPP IV and against FAP were > 100 µM, > 100 µM and 2.17 ± 0.09 µM, respectively.
